Where a name gives a salt, the structure may show the parent alone. Read-outs that look alike come from different tables or passages of the source. Values belong to the compound of their own block, whether it stands above or below them. Where a SMILES comes first, the peptide text is derived from it. Where no end group is shown, it is not given here.
How the values were obtained:
[1] = biological target: T1, HHAT (Homo sapiens, UniProt Q5VTY9); experiment: HHAT Acyl-cLIP assay with HHAT-P100(sol): SHH-FAM palmitoylation, dose-response and kinetics; assay type: biochemical
T1 construct: FLAG (C); His (C); made in house; host or cells: HEK293a cells stably overexpressing HHAT-FLAG-His
T1 sequence (Q5VTY9 whole entry): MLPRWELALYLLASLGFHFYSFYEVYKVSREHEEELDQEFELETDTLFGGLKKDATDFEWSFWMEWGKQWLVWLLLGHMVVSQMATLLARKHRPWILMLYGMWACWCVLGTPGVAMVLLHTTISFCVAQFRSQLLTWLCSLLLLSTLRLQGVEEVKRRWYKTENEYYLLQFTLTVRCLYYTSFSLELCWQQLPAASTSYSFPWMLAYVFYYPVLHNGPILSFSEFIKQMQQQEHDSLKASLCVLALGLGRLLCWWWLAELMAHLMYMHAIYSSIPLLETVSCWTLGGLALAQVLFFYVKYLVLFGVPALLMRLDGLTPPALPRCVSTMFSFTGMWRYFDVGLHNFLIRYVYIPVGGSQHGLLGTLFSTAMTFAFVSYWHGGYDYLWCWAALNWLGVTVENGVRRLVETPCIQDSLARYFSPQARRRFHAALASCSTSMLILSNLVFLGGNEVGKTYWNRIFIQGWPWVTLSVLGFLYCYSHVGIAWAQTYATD
Method: Recombinant Protein Production
HHAT-enriched solubilised membrane fractions (HHAT-P100(sol)) were prepared as previously described,[4] with the following modifications. HEK293a cells overexpressing HHAT-FLAG-His (HEK293a HHAT+) were cultured, harvested by trypsinisation, and washed with PBS as previously described.[9] Cells (5 × 106) in DMEM/FBS (35 mL) were inoculated on sterilised CultiSphere S microcarriers (100 mg) in a spinner flask (Corning), and incubated as previously described. After 24 h, DMEM/FBS (15 mL) was added and cells incubated with stirring (~30 rpm), with addition on DMEM/FBS (50 mL) after 24 h. DMEM/FBS (50 mL) was refreshed every subsequent 24 h. After 5 days, microcarriers were collected by centrifugation (1,000 g, 1 min), and washed with PBS (25 mL). Microcarriers were digested with trypsin (3 mL) with visual monitoring by microscopy (5-15 min, see Supplementary Figure S11D) to release HEK293a HHAT+ cells, which were washed with DMEM/FBS (25 mL) and PBS […]
(25 mL). […]
25 kPSI through a Cell Disruptor (Constant Systems). Lysates were cleared by centrifugation (20,000 g, 30 min, 4 °C), and the supernatant passed through a HisTrap™ Fast Flow column (GE Healthcare). Bound protein was eluted with elution buffer (50 mM TRIS, 150 mM NaCl, 300 mM imidazole, pH 8.8), and concentrated to 2 mL in a Protein Concentrator PES (Pierce, 10,000 MWCO). The sample was cleared by centrifugation (20,000 g, 5 min, 4 °C) and purified using a S75 16/600 gel filtration column (Generon), eluting with storage buffer (50 mM TRIS, 150 mM NaCl, pH 7.4). Fractions containing protein were pooled, concentrated (5 mg/mL APT1, 4 mg/mL APT2), flash frozen, and stored at −80 °C.
Fluorescence measurements were recorded on an EnVision Xcite 2104 (PerkinElmer).
FAM-labelled peptides were measured using a FITC FP D505fp mirror module, FITC FP 480 nm excitation filter (30 nm bandwidth), FITC FP P-pol 535 nm first emission filter (40 nm bandwidth), and FITC FP S-pol 535 nm second emission filter (40 nm bandwidth). Continuous reaction monitoring was conducted using measurement height = 9.52 mm, 8 flashes/well, PMT gain = 319, and G-factor = 1.09. For the HHAT pilot screen, stopped-assay measurements were performed using measurement height = 9.52 mm, 60 flashes/well, PMT gain = 319, and G-factor = 1.09. The NMT acyl-cLIP assay continuous reaction monitoring was conducted using measurement height = 6.6 mm, 1 flash/well, PMT gain = 163, and G- […]
TAMRA-labelled peptides were measured using a BODIPY TMR FP D555fp mirror module, BODIPY TMR FP 531 nm excitation filter (25 nm bandwidth), BODIPY TMR FP P-pol 579 nm first emission filter (25 nm bandwidth), and BODIPY TMR FP S-pol 579 nm second emission filter (25 nm bandwidth). Continuous reaction monitoring was conducted using measurement height = 6.5 mm, 200 flashes/well, PMT gain = 255, and G-factor = 1.6.
HHAT-P100(sol) (450 µg/mL) in solubilisation buffer (20 mM HEPES, 350 mM NaCl, 1% (w/v) DDM, 5% glycerol, pH 7.3) was diluted 1:10 in SHH-FAM (2 µM) in reaction buffer (100 mM MES, 20 mM NaCl, 1 mM DTT, 1 mM TCEP, 0.1% (w/v) BSA, pH 6.5). The HHAT/SHH-FAM solution (12 µL/well) was dispensed into a black 384-well plate (Corning, 3575). The reaction was initiated by addition of Pal-CoA (7.5 µM) in reaction buffer (8 µL/well), and fluorescence readings collected every 1 min for 1 h. Under stopped-assay conditions, the reaction was halted by addition of SHH (220 µM) in reaction buffer (2 µL).
Detergents (2 mM) or BSA (0.15 mM) were tested for generation of polarised fluorescence from Pal-SHH-FAM or SHH-FAM (0.1 µM) in 100 mM MES, 20 mM NaCl. Detergent and BSA titrations were performed using 2-fold serial dilutions.
Small molecule inhibitors in DMSO were dispensed using an Echo 550 liquid handler (Labcyte), with a DMSO backfill volume of 50 nL. Substrate competitors SHH, SHH(FL), or Pal-SHH were serially diluted in reaction buffer (1:3) prior to addition to the HHAT/SHH-FAM […]
solution. […]

[2] = tested on: SHH acylation in HEK-293 SHH+ cells; experiment: In-cell YnC15 tagging assay of SHH acylation; assay type: cell-based, human; conditions: inhibitors 20 µM, YnC15, AzTB ligation
Method: In-Cell YnC15 Tagging Assay
HEK293a SHH+ cells (500,000 cells/well) were plated in a 6-well plate in DMEM/FBS (3 mL/well) and cultured for 24 h. Cells were treated with inhibitors in DMSO (20 µM), two RUSKI-201 (20 µM) blind-positive controls and two DMSO (7.5 µL) blind-negative controls.
After 1 h, YnC15 (3 µL, 20 mM in DMSO) was added and cells cultured for a further 6 h before washing with PBS. Cells were lysed in PBS with Triton X-100 (1%), SDS (0.1% (w/v)) and Complete EDTA-free protease inhibitor cocktail (Roche Diagnostics). Cells were removed from plates by scraping, and lysates centrifuged (13,000 g, 10 min, 4 °C). The protein concentration of the supernatant was estimated using the DC Protein Assay (Bio-Rad) and adjusted to 1 mg/mL with lysis buffer. AzTB (1 µL, 10 mM in DMSO), CuSO4 (2 µL, 50 mM in H2O), TCEP (2 µL, 50 mM in H2O) and TBTA (1 µL, 10 mM in DMSO) were combined, and this mixture (6 µL) added to the lysate (100 µL). Samples were shaken at RT for 1 h, then proteins precipitated by addition of methanol (200 µL), chloroform (50 µL) and water (100 µL) followed by centrifugation (13,000 g, 5 min, 4 °C). The upper aqueous layer was removed without disturbing the protein layer at the interphase, methanol (0.5 mL) was added, and the precipitated proteins isolated by centrifugation (13,000 g, 10 min, 4 °C). Protein pellets were […]
washed twice with methanol, briefly air-dried and re-dissolved in PBS containing SDS (0.2% (w/v)) and DTT (0.1 mM) using sonication to a final concentration of 1 mg/mL.
10 µg of protein were separated on a 15% SDS-polyacrylamide gel. Fluorescence was recorded using a Typhoon imager (GE Healthcare; excitation laser: 532 nm, emission filter:
Proteins were transferred to a nitrocellulose membrane by wet transfer (100 V, 1 h), and membranes blocked with BSA (5% (w/v)) in TBS-T (50 mM TRIS, 150 mM NaCl, 0.1% Tween-20, pH 7.5) for 1 h at RT, followed by overnight incubation at 4°C with rabbit α-SHH (Santa Cruz Biotechnology; sc-9024; 1:200) in TBS-T with BSA (0.5% (w/v)) or mouse α-Tubulin (Santa Cruz Biotechnology; sc-8035; 1:200) in TBS-T with BSA (0.5% (w/v)). Membranes were washed with TBS-T (4 × 5 min) and incubated at RT for 1 h with HRP-conjugated Goat-α-mouse IgG (Advansta; 1:10,000) in TBS-T with BSA (0.5% (w/v)) or Goat-α-rabbit IgG (Advansta; 1:10,000) in TBS-T with BSA (0.5% (w/v)). Membranes were washed with TBS-T (4 × 5 min) and developed with Luminata Crescendo Western HRP substrate (Millipore) on a Fujifilm LAS-3000 imager. YnC15-labelled SHH band intensities were quantified using ImageJ 1.50i (National Institute of Health, USA).
HEK293a SHH+ cells (5,000 cells/well) were plated in a 96-well plate in DMEM/FBS […]
(50 µL/well) and cultured for 24 h. […]

[3] = biological target: T1, HHAT; experiment: Pilot HTS Acyl-cLIP screen of FDA-approved drugs, purified HHAT, stopped-assay conditions; assay type: biochemical; conditions: compounds screened at 25 μM
[4] = Detergent/BSA titration for polarised emission of Pal-SHH-FAM (fluorescence anisotropy); conditions: BSA titration with Pal-SHH-FAM; read-out: polarisation EC50
[5] = HHAT-P100(sol) activity, SHH-FAM palmitoylation, 25 min reaction, four parameter fit, read-out: IC50 of HHAT inhibition
[6] = HHAT, SHH-FAM substrate competition, read-out: IC50 as competitive inhibitor of SHH-FAM palmitoylation

- Vmax ([1]; Pal-CoA titration, SHH-FAM palmitoylation): 0.081 pmol min^–1
- Km ([1]; Pal-CoA titration, SHH-FAM palmitoylation, initial velocity conditions, read-out: apparent KM): 0.17 µM
- Vmax ([1]; Pal-CoA titration, initial velocity conditions): 0.081 pmol/min
Compound: CCCCCCCCCCCCCCCC(=O)SCCNC(=O)CCNC(=O)[C@H](O)C(C)(C)COP(=O)(O)OP(=O)(O)OC[C@H]1O[C@@H](n2cnc3c(N)ncnc32)[C@H](O)[C@@H]1OP(=O)(O)O [Pal-CoA, palmitoyl-CoA]

- inhibition at 25 µM [3]: > 80%
- IC50 [1, 5]: 2000 nM
Compound: CCC(C)CNCC(=O)N1CCc2sccc2C1c1cccc(C)n1 (centres unmarked) [RUSKI-201]
- inhibition of SHH acylation (YnC15 tagging) by in-gel fluorescence ([2]; IGF): showed inhibition of SHH acylation
- inhibition of SHH acylation assessed by increased molecular weight in anti-SHH blotting ([2]; α-SHH western blot): displayed inhibition

Compound: RUSKI-101
- IC50 [1, 5]: 2100 nM

- inhibition at 25 µM [3]: > 80%
Compound: O=C1Cc2cc(CCN3CCN(c4nsc5ccccc45)CC3)c(Cl)cc2N1 [Ziprasidone·HCl]

- IC50 [1, 6]: 370 nM
Compound: CGPGRGFGKRK-NH2 [SHH]

- IC50 [1, 6]: 440 nM
Compound: SHH(FL): N-terminal signalling domain of the mature full-length SHH protein (residues 24–193), expressed in E. coli without lipid modification

Compound: CCC(C)CNCC(=O)N1CCc2sccc2C1COc1cccc(C)c1 (centres unmarked) [RUSKI-43]
- IC50 [1, 5]: 17000 nM

- EC50 [4]: 490 nM
Compound: bovine serum albumin [BSA]

Compound: RUSKI-41
- IC50 [1, 5]: 5700 nM

- inhibition at 25 µM [3]: > 80%
Compound: Cc1cc(C2CCCCC2)n(O)c(=O)c1 [Ciclopirox]

- inhibition at 25 µM [3]: > 80%
Compound: Oc1ccc(C2CNCCc3c2cc(O)c(O)c3Cl)cc1 (centres unmarked) [Fenoldopam Mesylate]

- IC50 [1, 6]: 100 nM
Compound: CCCCCCCCCCCCCCCC(=O)N[C@@H](CS)C(=O)NCC(=O)N1CCC[C@H]1C(=O)NCC(=O)N[C@@H](CCCNC(=N)N)C(=O)NCC(=O)N[C@@H](Cc1ccccc1)C(=O)NCC(=O)N[C@@H](CCCCN)C(=O)N[C@@H](CCCNC(=N)N)C(=O)N[C@@H](CCCCN)C(N)=O [Pal-SHH] (HELM PEPTIDE1{[CCCCCCCCCCCCCCCC(=O)[*:2]].C.G.P.G.R.G.F.G.K.R.K.[am]}$$$$V2.0)
